Test results taken from publication PMC9376091, “Identification of small molecules targeting homoserine acetyl transferase from Mycobacterium tuberculosis and Staphylococcus aureus” (Scientific Reports, 2022).

Legend:
[1] = molecular target: T1, HSAT, MetX, Rv3341, (His)6-MetX, (His)6-Rv3341 (Mycobacterium tuberculosis, UniProt P9WJY9); assay: DTNB CoA release endpoint assay; assay type: biochemical
T1 construct: gene metXA

[2] = molecular target: T2, S. aureus HSAT, HSAT homolog from S. aureus (Staphylococcus aureus, UniProt A0A447ZIT7); assay: DTNB CoA release endpoint assay; assay type: biochemical; settings: 1.0 mM L-homoserine, 1.0 mM acetyl-CoA, 5.0 mM MgCl2, Tris-Cl pH 7.4, 37 °C
T2 construct: gene metX; cloned in pET28b (His tag implied), expressed in E. coli BL-21 (DE3, plysS), Ni-NTA and gel filtration; 4QLO used for docking
T2 sequence (A0A447ZIT7 1-322): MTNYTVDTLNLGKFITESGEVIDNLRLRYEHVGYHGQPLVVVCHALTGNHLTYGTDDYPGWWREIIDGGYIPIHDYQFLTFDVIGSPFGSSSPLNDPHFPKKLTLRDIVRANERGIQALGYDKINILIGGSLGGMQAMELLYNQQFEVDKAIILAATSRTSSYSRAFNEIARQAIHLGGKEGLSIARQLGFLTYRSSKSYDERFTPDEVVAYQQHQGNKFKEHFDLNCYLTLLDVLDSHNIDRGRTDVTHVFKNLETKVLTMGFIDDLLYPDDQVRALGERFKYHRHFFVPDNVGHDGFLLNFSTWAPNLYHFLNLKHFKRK

T1 sequence (P9WJY9 whole entry, looked up): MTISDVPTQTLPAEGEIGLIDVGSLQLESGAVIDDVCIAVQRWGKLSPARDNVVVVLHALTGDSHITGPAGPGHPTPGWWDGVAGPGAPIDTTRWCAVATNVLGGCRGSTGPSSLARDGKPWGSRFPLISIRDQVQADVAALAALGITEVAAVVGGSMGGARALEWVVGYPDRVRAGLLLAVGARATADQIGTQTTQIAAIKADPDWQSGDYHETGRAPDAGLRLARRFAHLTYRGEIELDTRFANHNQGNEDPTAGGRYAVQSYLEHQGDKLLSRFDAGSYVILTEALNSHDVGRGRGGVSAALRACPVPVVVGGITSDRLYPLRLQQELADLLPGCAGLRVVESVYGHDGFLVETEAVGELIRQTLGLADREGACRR

Row | SMILES | inhibition at 100 µM [1] | % inhibition at 100 μM [2] | % inhibition at 100 μM ([1]; 1.0 mM L-homoserine, 1.0 mM acetyl-CoA, 5.0 mM MgCl2, Tris-Cl pH 7.4, 37 °C)
1 | CCOC(=O)/C(C#N)=C1\SS/C(=C(/C#N)C(=O)OCC)S1 [compound 2, NSC98363] | > 50% | – | –
2 | Oc1cc(CNC2CCCCC2)c(O)cc1CNC1CCCCC1 [compound 3, NSC48443] | > 50% | > 60% | –
3 | C/C(=N\NC(=S)N(C)C)c1ccccn1.[Cu][Br] [compound 4, NSC635448] | – | > 60% | > 50%
4 | Cc1ccc(S(=O)(=O)SC/C=C/CSS(=O)(=O)c2ccc(C)cc2)cc1 [compound 5, NSC624158] | > 50% | > 60% | –
5 | COc1cc(-c2ccc(Nc3ccccc3C(=O)O)c(OC)c2)ccc1Nc1ccccc1C(=O)O [compound 6, NSC73735] | > 50% | – | –
6 | O=Nc1c(-c2cccc([N+](=O)[O-])c2)nc2ncccn12 [compound 7, NSC369066] | > 50% | – | –
7 | Oc1cc(-n2cccn2)c(O)cc1-n1cccn1 [compound 8, NSC645987] | > 50% | – | –
